Assay results: ChEMBL document CHEMBL1157186, “Characterization of chemical components in extracts from Si-wu decoction with proliferation-promoting effects on rat mesenchymal stem cells” (Bioorg Med Chem, 2008)
The source made the active and inactive calls. No cut-off for these calls is given here.

System: Mesenchymal stem cell
Experiment: Induction of proliferation of rat mesenchymal stem cells by MTT assay
Assay type: functional, cell-based

Row | Structure (SMILES) | Activity
1 | CC/C=C1\OC(=O)C2=C1C=CC(O)C2O (configuration not stated) | Active
2 | CCC/C=C1\OC(=O)C2=C1CCC=C2 | Active
